Measured values reported in paper PMC7343746, “(2S, 4R)-4-[^18F]Fluoroglutamine for In vivo PET Imaging of Glioma Xenografts in Mice: an Evaluation of Multiple Pharmacokinetic Models” (Molecular Imaging and Biology, 2020).
Several values for one entry are separate records, joined by “and”; a condition that tells them apart may be missing. Identical values can stand only once.

Legend:
rat BT4C glioma cells [1] = assay: Yokoi plot, subcutaneous model; assay type: in vivo, Foxn1^nu/nu mouse; settings: for Yokoi K1 (AB) plasma to tissue transport rate / Yokoi K1/k2 (AB) binding potential / Yokoi k2 (AB) tissue to plasma transport rate: AB input; for Yokoi K1 (PC) plasma to tissue transport rate / Yokoi K1/k2 (PC) binding potential / Yokoi k2 (PC) tissue to plasma transport rate: PC input
Protocol: (§1) Image analysis was performed using CARIMAS software published and freely distributed by the Turku PET Center (http://turkupetcentre.fi/carimas/). CT scans were used as rough anatomical reference while tumor regions of interest (ROI) were hand-drawn based upon observed spikes of radioactivity in the PET images at locations correlating with recorded tumor grafts. Control muscle ROIs were drawn on the side opposite to the tumor in the leg flank muscle (based on CT) while the blood ROI was drawn based upon heart anatomical location and observed PET image radioactivity spike during the initial 20 s of imaging in the left ventricle. Standardized uptake values (SUV) were calculated with respect to ROI volume, mean and max tumor radioactivity, total injected radioactivity dose (corrected for tail, cannula, and syringe residual radioactivity), and animal weight, and were additionally presented as tumor-to-background ratio (TBR, tumor-to-healthy brain region for intracranial gliomas and tumor-to-muscle for subcutaneous gliomas) as defined by recent glioma research literature standards. Mean and maximum TBR values were reported as ROI radioactivity per volume divided by mean background radioactivity per volume. The blood radioactivity SUV and gender-specific metabolite-corrected blood radioactivity SUV were then applied to multiple pharmacokinetic models to characterize the flux of the tracer (further described in the “Modeling” section).
(§2) Using the heart’s left ventricle ROI from the PET data as an uncorrected radioactivity level input and the bioavailable parent-tracer fraction (results: Eqs. 3 and 4 applied to the uncorrected input) as the corrected input, multiple models were investigated to characterize the tissue uptake dynamics. Two-compartment modeling and Logan, Patlak, and Yokoi plots were used to separately model the pharmacokinetics for the gliomas (both subcutaneous and orthotopic loci) and their respective control tissues (healthy muscle and healthy brain, respectively). Where indicated, means plus/minus standard deviations are reported. Difference in parameters for uncorrected versus correct and target tissue versus their respective control regions were tested with students’ paired t tests with P values lower than 0.05 being considered significant.

rat BT4C glioma cells [2] = assay: In vivo PET imaging of subcutaneous glioma xenografts; parameters: species or system Foxn1^nu/nu mouse; settings: for Tumor-to-background muscle ratio: at uptake plateau around 12.5 min
Description: The subcutaneous tumor model was created by injecting rat BT4C glioma cells subcutaneously into the hind leg and neck region of six athymic nude (Foxn1^nu/nu, Envigo, Gannant, France) mice at 7 weeks old. Tumor growth was visually tracked and subjects PET imaged after 5 weeks. See Electronic Supplemental Materials (ESM) for detailed animal models.
(§3) One to two mice were imaged at a time while under 2 % isoflurane anesthesia with an Inveon multimodality small animal PET/CT scanner (Siemens Medical Solutions, Munich, Germany) commencing with an attenuation CT scan to correct the PET scan data. Ten to twelve megabequerels of the tracer was injected into the tail vein, and the subject(s) were imaged over a 60-min period in list mode dividing framing into 6 × 10 s, 4 × 60 s, 5 × 300 s, 3 × 600 s. Obtained sinograms were reconstructed using the ordered-subset expectation maximization 2-dimensional algorithm to obtain the final PET images and back-corrected for radionuclide decay.
as §1

rat BT4C glioma cells [3] = assay: 2-Compartment model, subcutaneous model; assay type: in vivo, Foxn1^nu/nu mouse
Protocol: as §1, §2

[4] = system: patient-derived BT3 glioma cells; assay: In vivo PET imaging of orthotopic glioma xenografts; parameters: species or system BALB/cOlaHsd-Foxn1^nu mouse; settings: for PET TBRmean: orthotopic glioma
Description: The intracranial glioma model was made by injecting female BALB/cOlaHsd-Foxn1^nu (athymic nude, Institute of Animal Genetics, Edinburgh, UK) mice with patient-derived BT3 glioma cells labeled with luciferase into the frontal right hemisphere of the brain at 9 weeks old. Tumors were monitored for growth via in vivo bioluminescence detection and subjects PET imaged after 12 days.
as §3
Image analysis was performed using CARIMAS software published and freely distributed by the Turku PET Center (http://turkupetcentre.fi/carimas/). CT scans were used as rough anatomical reference while tumor regions of interest (ROI) were hand-drawn based upon observed spikes of radioactivity in the PET images at locations correlating with recorded tumor grafts. Control muscle ROIs were drawn on the side opposite to the tumor in the leg flank muscle (based on CT) while the blood ROI was drawn based upon heart anatomical location and observed PET image radioactivity spike during the initial 20 s of imaging in the left ventricle. […] Mean and maximum TBR values were reported as ROI radioactivity per volume divided by mean background radioactivity per volume. The blood radioactivity SUV and gender-specific metabolite-corrected blood radioactivity SUV were then applied to multiple pharmacokinetic models to characterize the flux of the tracer (further described in the “Modeling” section).

[5] = Bone (femoral condyle) average (n = 6)
[6] = Bone (femoral condyle) average (n = 6), arterial blood input
[7] = Bone (femoral condyle) average (n=6), plasma-corrected input
[8] = Flank muscle average (n = 6), arterial blood input
[9] = Flank muscle average (n=6), plasma-corrected input
[10] = Flank tumor average (n = 6), arterial blood input
[11] = Flank tumor average (n=6), plasma-corrected input
[12] = Neck tumor average (n = 6), arterial blood input
[13] = Neck tumor average (n=6), plasma-corrected input

Yokoi K1 (AB) plasma to tissue transport rate (rat BT4C glioma cells [1]; [5]): 0.075 ± 0.013 mL min-1 mL-1
Yokoi K1/k2 (AB) binding potential (rat BT4C glioma cells [1]; [5]): 5.48 ± 2.21 mL mL-1
Yokoi k2 (AB) tissue to plasma transport rate (rat BT4C glioma cells [1]; [5]): 0.017 ± 0.012 min⁻¹
Yokoi K1 (PC) plasma to tissue transport rate (rat BT4C glioma cells [1]; [5]): 0.086 ± 0.015 mL min-1 mL-1
Yokoi K1/k2 (PC) binding potential (rat BT4C glioma cells [1]; [5]): 37.68 ± 39.62 mL mL-1
Yokoi k2 (PC) tissue to plasma transport rate (rat BT4C glioma cells [1]; [5]): 0.005 ± 0.006 min⁻¹
Yokoi K1 (AB) plasma to tissue transport rate (rat BT4C glioma cells [1]; Flank muscle average (n = 6)): 0.057 ± 0.023 mL min-1 mL-1
Yokoi K1/k2 (AB) binding potential (rat BT4C glioma cells [1]; Flank muscle average (n = 6)): 0.76 ± 0.13 mL mL-1
Yokoi k2 (AB) tissue to plasma transport rate (rat BT4C glioma cells [1]; Flank muscle average (n = 6)): 0.074 ± 0.028 min⁻¹
Yokoi K1 (PC) plasma to tissue transport rate (rat BT4C glioma cells [1]; Flank muscle average (n = 6)): 0.054 ± 0.017 mL min-1 mL-1
Yokoi K1/k2 (PC) binding potential (rat BT4C glioma cells [1]; Flank muscle average (n = 6)): 1.37 ± 0.23 mL mL-1
Yokoi k2 (PC) tissue to plasma transport rate (rat BT4C glioma cells [1]; Flank muscle average (n = 6)): 0.039 ± 0.013 min⁻¹
Yokoi K1 (AB) plasma to tissue transport rate (rat BT4C glioma cells [1]; Flank tumor average (n = 6)): 0.121 ± 0.039 mL min-1 mL-1
Yokoi K1/k2 (AB) binding potential (rat BT4C glioma cells [1]; Flank tumor average (n = 6)): 1.13 ± 0.09 mL mL-1
Yokoi k2 (AB) tissue to plasma transport rate (rat BT4C glioma cells [1]; Flank tumor average (n = 6)): 0.106 ± 0.029 min⁻¹
Yokoi K1 (PC) plasma to tissue transport rate (rat BT4C glioma cells [1]; Flank tumor average (n = 6)): 0.105 ± 0.027 mL min-1 mL-1
Yokoi K1/k2 (PC) binding potential (rat BT4C glioma cells [1]; Flank tumor average (n = 6)): 1.95 ± 0.15 mL mL-1
Yokoi k2 (PC) tissue to plasma transport rate (rat BT4C glioma cells [1]; Flank tumor average (n = 6)): 0.054 ± 0.011 min⁻¹
Yokoi K1 (AB) plasma to tissue transport rate (rat BT4C glioma cells [1]; Neck tumor average (n = 6)): 0.179 ± 0.076 mL min-1 mL-1
Yokoi K1/k2 (AB) binding potential (rat BT4C glioma cells [1]; Neck tumor average (n = 6)): 1.21 ± 0.08 mL mL-1
Yokoi k2 (AB) tissue to plasma transport rate (rat BT4C glioma cells [1]; Neck tumor average (n = 6)): 0.146 ± 0.056 min⁻¹
Yokoi K1 (PC) plasma to tissue transport rate (rat BT4C glioma cells [1]; Neck tumor average (n = 6)): 0.135 ± 0.039 mL min-1 mL-1
Yokoi K1/k2 (PC) binding potential (rat BT4C glioma cells [1]; Neck tumor average (n = 6)): 2.08 ± 0.13 mL mL-1
Yokoi k2 (PC) tissue to plasma transport rate (rat BT4C glioma cells [1]; Neck tumor average (n = 6)): 0.065 ± 0.016 min⁻¹
Tumor-to-background muscle ratio (rat BT4C glioma cells [2]; flank locus): 2.0 ± 0.8
Tumor-to-background muscle ratio (rat BT4C glioma cells [2]; neck locus): 1.8 ± 0.6
PET tumor-to-muscle (flank) ratio (rat BT4C glioma cells [2]; subcutaneous BT4C gliomas, n = 12): 1.9 ± 0.7
Time at which tracer uptake plateaued (rat BT4C glioma cells [2]; subcutaneous BT4C tumors): around 12.5 min
2-Compartment K1 (rat BT4C glioma cells [3]; [6]): 0.309 ± 0.179 mL min-1 mL-1
2-Compartment K1/k2 (rat BT4C glioma cells [3]; [6]): 0.745 ± 0.194 mL mL-1
2-Compartment Vb (rat BT4C glioma cells [3]; [6]): 5.45 ± 2.53%
2-Compartment k3 (rat BT4C glioma cells [3]; [6]): 0.075 ± 0.034 min⁻¹
2-Compartment k3*K1/k2 (rat BT4C glioma cells [3]; [6]): 0.052 ± 0.017
2-Compartment k3/(k2+k3) (rat BT4C glioma cells [3]; [6]): 0.171 ± 0.083
2-Compartment K1 (rat BT4C glioma cells [3]; [7]): 0.402 ± 0.206 mL min-1 mL-1
2-Compartment K1/k2 (rat BT4C glioma cells [3]; [7]): 0.649 ± 0.191 mL mL-1
2-Compartment Vb (rat BT4C glioma cells [3]; [7]): 3.21 ± 3.57%
2-Compartment k3 (rat BT4C glioma cells [3]; [7]): 0.148 ± 0.063 min⁻¹
2-Compartment k3*K1/k2 (rat BT4C glioma cells [3]; [7]): 0.086 ± 0.024
2-Compartment k3/(k2+k3) (rat BT4C glioma cells [3]; [7]): 0.198 ± 0.079
2-Compartment K1 (rat BT4C glioma cells [3]; [8]): 0.079 ± 0.027 mL min-1 mL-1
2-Compartment K1/k2 (rat BT4C glioma cells [3]; [8]): 0.564 ± 0.130 mL mL-1
2-Compartment Vb (rat BT4C glioma cells [3]; [8]): 2.33 ± 1.07%
2-Compartment k3 (rat BT4C glioma cells [3]; [8]): 0.009 ± 0.005 min⁻¹
2-Compartment k3*K1/k2 (rat BT4C glioma cells [3]; [8]): 0.005 ± 0.002
2-Compartment k3/(k2+k3) (rat BT4C glioma cells [3]; [8]): 0.061 ± 0.038
2-Compartment K1 (rat BT4C glioma cells [3]; [9]): 0.081 ± 0.027 mL min-1 mL-1
2-Compartment K1/k2 (rat BT4C glioma cells [3]; [9]): 0.797 ± 0.163 mL mL-1
2-Compartment Vb (rat BT4C glioma cells [3]; [9]): 2.8 ± 1.12%
2-Compartment k3 (rat BT4C glioma cells [3]; [9]): 0.015 ± 0.005 min⁻¹
2-Compartment k3*K1/k2 (rat BT4C glioma cells [3]; [9]): 0.012 ± 0.003
2-Compartment k3/(k2+k3) (rat BT4C glioma cells [3]; [9]): 0.136 ± 0.055
2-Compartment K1 (rat BT4C glioma cells [3]; [10]): 0.147 ± 0.028 mL min-1 mL-1
2-Compartment K1/k2 (rat BT4C glioma cells [3]; [10]): 0.973 ± 0.187 mL mL-1
2-Compartment Vb (rat BT4C glioma cells [3]; [10]): 5.59 ± 2.78%
2-Compartment k3 (rat BT4C glioma cells [3]; [10]): 0.005 ± 0.004 min⁻¹
2-Compartment k3*K1/k2 (rat BT4C glioma cells [3]; [10]): 0.004 ± 0.003
2-Compartment k3/(k2+k3) (rat BT4C glioma cells [3]; [10]): 0.028 ± 0.021
2-Compartment K1 (rat BT4C glioma cells [3]; [11]): 0.148 ± 0.027 mL min-1 mL-1
2-Compartment K1/k2 (rat BT4C glioma cells [3]; [11]): 1.369 ± 0.273 mL mL-1
2-Compartment Vb (rat BT4C glioma cells [3]; [11]): 6.64 ± 3.1%
2-Compartment k3 (rat BT4C glioma cells [3]; [11]): 0.010 ± 0.004 min⁻¹
2-Compartment k3*K1/k2 (rat BT4C glioma cells [3]; [11]): 0.013 ± 0.003
2-Compartment k3/(k2+k3) (rat BT4C glioma cells [3]; [11]): 0.086 ± 0.028
2-Compartment K1 (rat BT4C glioma cells [3]; [12]): 0.202 ± 0.079 mL min-1 mL-1
2-Compartment K1/k2 (rat BT4C glioma cells [3]; [12]): 1.129 ± 0.141 mL mL-1
2-Compartment Vb (rat BT4C glioma cells [3]; [12]): 8.28 ± 5.95%
2-Compartment k3 (rat BT4C glioma cells [3]; [12]): 0.002 ± 0.002 min⁻¹
2-Compartment k3*K1/k2 (rat BT4C glioma cells [3]; [12]): 0.002 ± 0.002
2-Compartment k3/(k2+k3) (rat BT4C glioma cells [3]; [12]): 0.015 ± 0.013
2-Compartment K1 (rat BT4C glioma cells [3]; [13]): 0.202 ± 0.072 mL min-1 mL-1
2-Compartment K1/k2 (rat BT4C glioma cells [3]; [13]): 1.567 ± 0.209 mL mL-1
2-Compartment Vb (rat BT4C glioma cells [3]; [13]): 9.79 ± 6.85%
2-Compartment k3 (rat BT4C glioma cells [3]; [13]): 0.008 ± 0.002 min⁻¹
2-Compartment k3*K1/k2 (rat BT4C glioma cells [3]; [13]): 0.013 ± 0.002
2-Compartment k3/(k2+k3) (rat BT4C glioma cells [3]; [13]): 0.065 ± 0.026
PET TBRmean ([4]; Subject A): 4.8
PET TBRmean ([4]; Subject B): 3.6
PET image tumor-to-healthy brain region ratio ([4]; orthotopic human glioma xenografts): 3.6 and 4.8
Structure (SMILES): NC(=O)[C@H]([18F])C[C@H](N)C(=O)O [[^18F]FGln, (2S, 4R)-4-[^18F]fluoroglutamine]
